Source: ChEMBL document CHEMBL4138105, “LL-37-derived short antimicrobial peptide KR-12-a5 and its d-amino acid substituted analogs with cell selectivity, anti-biofilm activity, synergistic effect with conventional antibiotics, and anti-inflammatory activity” (Eur J Med Chem, 2017)
Activity calls are given as the source filed them.

Tests used:
[1] = system: Enterococcus faecium; assay: Potency index, ratio of LL-37 MIC to compound MIC for Vancomycin-resistant Enterococcus faecium ATCC 51559; type: functional
[2] = system: Staphylococcus aureus; assay: Antibacterial activity against Staphylococcus aureus KCTC 1621 assessed as cytoplasmic membrane depolarization at 2 times MIC by disC3-5 dye based fluorescence assay; type: functional, organism-based
[3] = system: Pseudomonas aeruginosa; assay: Antibacterial activity against multidrug-resistant Pseudomonas aeruginosa CCARM 2109 after 24 hrs; type: functional; conditions: CCARM 2109, 24 h
[4] = system: RAW264.7; assay: Anti-inflammatory activity in mouse RAW264.7 cells assessed as reduction in LPS-induced iNOS mRNA expression at 5 uM after 6 hrs by RT-PCR analysis; type: functional, cell-based
[5] = system: Staphylococcus aureus; assay: Antibacterial activity against methicillin resistant Staphylococcus aureus CCARM 3089 after 24 hrs; type: functional; conditions: CCARM 3089, 24 h
[6] = system: Staphylococcus aureus; assay: Antibacterial activity against Staphylococcus aureus KCTC 1621 in presence of 20% human serum after 24 hrs; type: functional; conditions: KCTC 1621, 24 h
[7] = Binding affinity to EYPC/cholesterol small unilamellar vesicles assessed as intrinsic tryptophan acrylamide quenching constant by fluorescence assay (reference value: 5.95 to 7.56 /M)
[8] = system: Pseudomonas aeruginosa; assay: Potency index, ratio of LL-37 MBIC90 to compound MBIC90 for antibiofilm activity against multidrug-resistant Pseudomonas aeruginosa CCARM 2095; type: functional
[9] = system: Staphylococcus aureus; assay: Antibacterial activity against Staphylococcus aureus KCTC 1621 in presence of 2.5 mM CaCl2 after 24 hrs; type: functional; conditions: KCTC 1621, 24 h
[10] = system: Pseudomonas aeruginosa; assay: Synergistic antibacterial activity against multidrug-resistant Pseudomonas aeruginosa CCARM 2095 after 72 hrs in presence of ciprofloxacin by chequerboard assay; type: functional
[11] = system: Enterococcus faecium; assay: Potency index, ratio of melittin MIC to compound MIC for Vancomycin-resistant Enterococcus faecium ATCC 51559; type: functional
[12] = Therapeutic index, ratio of MHC10 for human RBC to MIC for Escherichia coli KCTC 1682; type: toxicity; conditions: red blood cells (RBC), pooled result: one value given for 6 cell lines, strains, targets or settings, read-out: TI
[13] = system: Staphylococcus aureus; assay: Potency index, ratio of melittin MIC to compound MIC for methicillin resistant Staphylococcus aureus CCARM 3095; type: functional
[14] = system: Staphylococcus aureus; assay: Potency index, ratio of LL-37 MIC to compound MIC for methicillin resistant Staphylococcus aureus CCARM 3090; type: functional
[15] = system: Salmonella typhimurium; assay: Antibacterial activity against Salmonella typhimurium KCTC 11926 after 24 hrs; type: functional, Salmonella enterica subsp. enterica serovar Typhimurium; conditions: Salmonella enterica, KCTC 11926, 24 h
[16] = system: Staphylococcus aureus; assay: Antibacterial activity against methicillin resistant Staphylococcus aureus CCARM 3095 after 24 hrs; type: functional; conditions: CCARM 3095, 24 h
[17] = system: NIH3T3; assay: Cytotoxicity against mouse NIH/3T3 cells up to 128 uM after 48 hrs by MTT assay; type: cell-based; conditions: nih3t3, 48 h
[18] = system: Escherichia coli; assay: Antibacterial activity against Escherichia coli KCTC 1682 in presence of 1 mM MgCl2 after 24 hrs; type: functional; conditions: KCTC 1682, 24 h
[19] = system: Pseudomonas aeruginosa; assay: Potency index, ratio of melittin MIC to compound MIC for multidrug-resistant Pseudomonas aeruginosa CCARM 2095; type: functional
[20] = system: RAW264.7; assay: Cytotoxicity against mouse RAW264.7 cells up to 128 uM after 48 hrs by MTT assay; type: cell-based; conditions: raw264.7, 48 h
[21] = system: RAW264.7; assay: Anti-inflammatory activity in mouse RAW264.7 cells assessed as reduction in LPS-induced IL-6 mRNA expression at 10 uM after 3 hrs by RT-PCR analysis; type: functional, cell-based
[22] = system: Bacillus subtilis; assay: Antibacterial activity against Bacillus subtilis KCTC 3068 after 24 hrs; type: functional; conditions: KCTC 3068, 24 h
[23] = system: Staphylococcus aureus; assay: Potency index, ratio of melittin MIC to compound MIC for methicillin resistant Staphylococcus aureus CCARM 3090; type: functional
[24] = system: RAW264.7; assay: Anti-inflammatory activity in mouse RAW264.7 cells assessed as reduction in LPS-induced MCP-1 mRNA expression at 10 uM after 3 hrs by RT-PCR analysis; type: functional, cell-based
[25] = system: RAW264.7; assay: Anti-inflammatory activity in mouse RAW264.7 cells assessed as reduction in LPS-induced TNF-alpha production at 10 to 20 uM preincubated for 1 hr followed by LPS stimulation measured after 6 hrs by ELISA; type: functional, cell-based
[26] = system: Escherichia coli; assay: Antibacterial activity against Escherichia coli KCTC 1682 in presence of 20% human serum after 24 hrs; type: functional; conditions: KCTC 1682, 24 h
[27] = system: Staphylococcus aureus; assay: Antibacterial activity against Staphylococcus aureus KCTC 1621 in presence of 6 uM NH4Cl after 24 hrs; type: functional; conditions: KCTC 1621, 24 h
[28] = system: Staphylococcus aureus; assay: Antibacterial activity against methicillin resistant Staphylococcus aureus CCARM 3090 after 24 hrs; type: functional; conditions: CCARM 3090, 24 h
[29] = system: Escherichia coli; assay: Antibacterial activity against Escherichia coli KCTC 1682 in presence of 6 uM NH4Cl after 24 hrs; type: functional; conditions: KCTC 1682, 24 h
[30] = system: Staphylococcus aureus; assay: Potency index, ratio of LL-37 MIC to compound MIC for methicillin resistant Staphylococcus aureus CCARM 3095; type: functional
[31] = system: Staphylococcus epidermidis; assay: Antibacterial activity against Staphylococcus epidermidis KCTC 1917 after 24 hrs; type: functional; conditions: KCTC 1917, 24 h
[32] = system: Pseudomonas aeruginosa; assay: Potency index, ratio of LL-37 MIC to compound MIC for multidrug-resistant Pseudomonas aeruginosa CCARM 2109; type: functional
[33] = system: Erythrocyte; assay: Hemolytic activity in human RBC after 1 hr; type: ADME, cell-based
[34] = system: Staphylococcus aureus; assay: Antibacterial activity against Staphylococcus aureus KCTC 1621 in presence of 150 mM NaCl after 24 hrs; type: functional; conditions: KCTC 1621, 24 h
[35] = system: Pseudomonas aeruginosa; assay: Synergistic antibacterial activity against multidrug-resistant Pseudomonas aeruginosa CCARM 2095 after 72 hrs in presence of oxacillin by chequerboard assay; type: functional
[36] = system: Pseudomonas aeruginosa; assay: Potency index, ratio of melittin MIC to compound MIC for multidrug-resistant Pseudomonas aeruginosa CCARM 2109; type: functional
[37] = system: Lipid bilayer; assay: Binding affinity to EYPE/EYPG small unilamellar vesicles assessed as intrinsic tryptophan acrylamide quenching constant by fluorescence assay (reference value: 5.95 to 7.56 /M)
[38] = system: Escherichia coli; assay: Antibacterial activity against Escherichia coli KCTC 1682 in presence of 2.5 mM CaCl2 after 24 hrs; type: functional; conditions: KCTC 1682, 24 h
[39] = system: Pseudomonas aeruginosa; assay: Antibacterial activity against multidrug-resistant Pseudomonas aeruginosa CCARM 2095 after 24 hrs; type: functional; conditions: CCARM 2095, 24 h
[40] = system: Staphylococcus aureus; assay: Antibacterial activity against Staphylococcus aureus KCTC 1621 in presence of 1 mM MgCl2 after 24 hrs; type: functional; conditions: KCTC 1621, 24 h
[41] = system: Escherichia coli; assay: Antibacterial activity against Escherichia coli KCTC 1682 after 24 hrs; type: functional; conditions: KCTC 1682, 24 h
[42] = system: Staphylococcus aureus; assay: Ratio of MIC for Staphylococcus aureus KCTC 1621 in presence of 20% human serum to MIC for Escherichia coli KCTC 1682 in presence of 20% human serum; type: functional
[43] = system: Pseudomonas aeruginosa; assay: Potency index, ratio of LL-37 MIC to compound MIC for multidrug-resistant Pseudomonas aeruginosa CCARM 2095; type: functional
[44] = system: Pseudomonas aeruginosa; assay: Antibiofilm activity against multidrug-resistant Pseudomonas aeruginosa CCARM 2095 after 24 hrs by crystal violet staining based assay; type: functional
[45] = system: Staphylococcus aureus; assay: Potency index, ratio of melittin MIC to compound MIC for methicillin resistant Staphylococcus aureus CCARM 3089; type: functional

CC[C@H](C)[C@H](NC(=O)[C@H](CCCNC(=N)N)NC(=O)[C@@H](N)CCCCN)C(=O)N[C@H](C(=O)N[C@@H](CCCCN)C(=O)N[C@@H](CC(C)C)C(=O)N[C@H](CC(C)C)C(=O)N[C@@H](CC(C)C)C(=O)N[C@@H](CCCCN)C(=O)N[C@@H](Cc1c[nH]c2ccccc12)C(=O)N[C@@H](CC(C)C)C(=O)N[C@@H](CCCNC(=N)N)C(N)=O)C(C)C
0.3125: fractional inhibitory concentration index (FICI) [10] | fractional inhibitory concentration index (FICI) [35]
4 µM: MIC [3] | MIC [5] | MIC [9] | MIC [16] | MIC [26] | MIC [28] | MIC [29] | MIC [31] | MIC [34] | MIC [41]
1.01 M⁻¹: KSV [37]
2.98 M⁻¹: KSV [7]
active: Activity [2] | Activity [4] | Activity [21] | Activity [24] | Activity [25]
16 µM: MIC [6] | MIC [38]
4 - 8: fold change (FC) [8]
8 µM: MIC [18] | MIC [39] | MIC [40] | MBIC90 [44]
2 - 8: Ratio [42]
111 µM: MHC10 [33]
2 µM: MIC [15] | MIC [22] | MIC [27]
2 - 4: Ratio [1] | Ratio [11] | Ratio [13] | Ratio [14] | Ratio [19] | Ratio [23] | Ratio [30] | Ratio [32] | Ratio [36] | Ratio [43] | Ratio [45]
30: selectivity ratio [12]
Non-Toxic: Activity [17] | Activity [20]

CC[C@H](C)[C@H](NC(=O)[C@H](CC(C)C)NC(=O)[C@@H](CCCCN)NC(=O)[C@@H](NC(=O)[C@@H](NC(=O)[C@H](CCCNC(=N)N)NC(=O)[C@@H](N)CCCCN)[C@@H](C)CC)C(C)C)C(=O)N[C@@H](CC(C)C)C(=O)N[C@@H](CCCCN)C(=O)N[C@@H](Cc1c[nH]c2ccccc12)C(=O)N[C@@H](CC(C)C)C(=O)N[C@@H](CCCNC(=N)N)C(N)=O
0.375: fractional inhibitory concentration index (FICI) [35]
active: Activity [2] | Activity [4] | Activity [21] | Activity [24] | Activity [25]
1.02 M⁻¹: KSV [37]
2.21 M⁻¹: KSV [7]
0.5: fractional inhibitory concentration index (FICI) [10]
2 - 8: Ratio [42]
2 - 4: Ratio [1] | Ratio [11] | Ratio [13] | Ratio [14] | Ratio [19] | Ratio [23] | Ratio [30] | Ratio [32] | Ratio [36] | Ratio [43] | Ratio [45]
8 µM: MIC [18] | MIC [22] | MIC [38] | MIC [39] | MIC [40] | MBIC90 [44]
79 µM: MHC10 [33]
4 - 8: fold change (FC) [8]
16 µM: MIC [6]
16.8: selectivity ratio [12]
2 µM: MIC [15] | MIC [27] | MIC [34]
4 µM: MIC [3] | MIC [5] | MIC [9] | MIC [16] | MIC [26] | MIC [28] | MIC [29] | MIC [31] | MIC [41]
Non-Toxic: Activity [17] | Activity [20]
